# Ends that are not written are not given here.
# Assays:
# isolated spinal cords = experiment: slow ventral root potential (sVRP) of isolated spinal cord, naloxone-precipitated morphine withdrawal hyperresponsiveness; format: cell-based, rat
# Description: The slow ventral root potential (sVRP) is an electrophysiolgical measurement of nociceptive-related response in the spinal cord lasting approximately 40 seconds (Yanagisawa et al., Eur. J. Pharmacol., 106:231-239 (1984); Akagi H. et al., British J. Pharmacol., 84:663-673 (1985); Otsuka M. et al., J. Physiol., 395:255-270 (1988)). It is evoked by stimulation of a lumbar dorsal root at an intensity sufficient to activate small diameter afferents that transmit nociceptive (painful) stimuli from the periphery to the spinal cord (Lozier A. P. et al., J. Neurophysiol., 74:1001-1009 (1995)). […] Thus, the sVRP is related to pain, and its exaggeration following naloxone is a manifestation of withdrawal which translates to an increase in pain sensation in vivo.
# Spinal cords from 4-7 day old rats (Charles River Laboratories) were removed and arranged for electrophysiological recording of the slow ventral root potentials (sVRP) (Woodley S. J., et al., Brain Res., 559:17-21 (1991). Briefly, pups were decapitated under halothane anesthesia and the spinal cord removed to an oxygenated artificial cerebrospinal fluid solution. A suction stimulating electrode was placed on a lumbar dorsal root and a suction recording electrode on the corresponding ipsilateral ventral root. Square wave stimuli 0.2 ms in duration were administered at a constant frequency of 1/50 seconds throughout the experiment. Test agents were applied and the responses were recorded, digitized, and area under the curve measured.
# After a baseline reading of the sVRP, morphine (200 nM) was applied to the isolated spinal cords. The sVRP was again recorded to characterize the response to morphine. Naloxone (200 nM) was then applied and the sVRPs recorded.
# FIGS. 2A-2D show the results after application of non-specific PKC antagonist, GF109203X (1.2 μM), and of an inhibitor specific to Ca++-dependent PKC isoforms, Go6976 (1 μM).
# FIGS. 3A-3B show the results after application of the εPCK antagonist (εV1-2; SEQ ID NO:1, 2 nM), conjugated to a peptide carrier (Tat; SEQ ID NO:3) and the Tat peptide alone (2 nM; SEQ ID NO:3). FIGS. 3C-3D show the results after application of γPKC (γV5-3; SEQ ID NO:2, 4 nM) conjugated to a peptide carrier (Tat; SEQ ID NO:3) and of the Tat peptide alone (4 nm; SEQ ID NO:3).
# postnatal day 7 rats = experiment: naloxone-precipitated morphine withdrawal, mechanical threshold and thermal paw withdrawal latency in vivo; parameters: species or system rat; conditions: 10 μM in 5 μl intrathecally prior to morphine 1 mg/kg s.c.; naloxone 0.25 mg/kg 30 min after morphine
# Procedure: In vivo studies on opiate withdrawal allodynia and hyperalgesia were conducted using postnatal day 7 rats. As described in Example 2, postnatal day 7 rats were given morphine subcutaneously followed 30 minutes later by naloxone or saline. Mechanical threshold using von Frey filaments to produce the flexion withdrawal response of the hind paw and thermal stimulation to measure the paw withdrawal latency were measured as described in Example 2.
# FIG. 5A illustrates a treatment protocol where rat pups were given a PKC antagonist intrathecally (e.g., directly into the cerebrospinal fluid surrounding the spinal cord) prior to subcutaneous morphine delivery. Thirty minutes after morphine delivery, naloxone was administered, followed by mechanical allodynia and thermal hyperalgesia testing (as described in Example 2).
# Postnatal day 7 Sprague-Dawley rats (Charles River Laboratories) of both sexes were used. For all behavioural experiments rats were maintained at nesting temperature with overhead heatlamps.
# To measure mechanical thresholds, rats were placed on an elevated wire mesh (2 mm openings). Von Frey hairs (Stoelting Co., WoodDale, Ill., USA) were used to elicit a cutaneous flexion withdrawal response as described by Fitzgerald et al. (Fitzgerald M., et al., PAIN […] INFANTS, CHILDREN AND ADOLESCENTS; Schetchter and Yaster, Eds., pp 11-32, Williams and Williams (Baltimore, Md.) (1993). Von Frey hairs of increasing intensity were applied three times to the plantar surface of the left hind paw until a paw withdrawal was elicited. The lowest intensity Von Frey hair required to produce a withdrawal reflex was recorded as the response threshold to a low-intensity mechanical stimulus.
# Thermal paw withdrawal latencies were measured using the Ugo Basile Plantar Testing apparatus (Stoelting Co., WoodDale, Ill., USA). Briefly, postnatal day 7 rats were placed under inverted Plexiglas enclosures and the plantar surface of the left hindpaw was heated from below with the IR intensity of the lamp set at 30. Two baseline thermal response latency measures were collected prior to morphine administration with a cut-off of 20 seconds enlisted to prevent tissue damage.
# Postnatal day 7 rats were administered 1 mg/kg morphine sulfate (Sigma) subcutaneously in 50 μl saline. Mechanical thresholds were measured 15 minutes later to establish analgesia. Rats were returned to their dam. At 30 or 120 minutes post morphine, rats were administered 0.25 mg/kg naloxone (Sigma) subcutaneously in 50 μl saline. Mechanical thresholds and thermal paw withdrawal latencies were measured in 10 minute intervals. Tat conjugated peptide inhibitors specific to the ε (εV1-2; SEQ ID NO:1, 10 μM) and γ ([…]; SEQ ID NO:2, 10 μM) isoforms of PKC, Tat carrier (10 μM), or saline were administered in 5 μl volumes intrathecally via direct lumbar puncture using a sterile 29 gauge 3/10 cc insulin syringe in rats lightly anesthetized with halothane. To allow for complete recovery from anesthetic, animals were administered peptides or control solutions 30 minutes prior to naloxone.
# An unpaired T-test was used to determine the significance of post-naloxone measures from baseline measures. Significance between treatment groups for PKC inhibitor studies both in vivo and in vitro was determined by one way analysis of variance (ANOVA) followed by a post-hoc Bonferroni analysis. P-values<0.05 were considered significant. All statistical analysis was done with GraphPad Prism version 3.02.
# [1] = tested on: 7 day old and 21 day old rats; experiment: ethanol withdrawal mechanical allodynia testing (von Frey threshold withdrawal force); format: in vivo, rat
substance,measurement,setting,value
RLVLAS (also: Tat peptide conjugate; listed as Homo sapiens) [γV5-3],effect on sVRP of inhibitor alone,isolated spinal cords; absence of morphine,did not significantly altered the sVRP
same,block of naloxone-precipitated withdrawal hyperresponsiveness of sVRP,"isolated spinal cords; morphine 200 nM then naloxone 200 nM, GF109203X 1.2 μM, Go6976 1 μM, εV1-2 2 nM, γV5-3 4 nM, Tat 2-4 nM","reduced withdrawal hyperresponsiveness, but not to a significantly greater amount than the Tat carrier vehicle alone"
same,block of naloxone-precipitated morphine withdrawal allodynia and hyperalgesia,postnatal day 7 rats,had a smaller blocking effect
same,"mechanical allodynia, threshold withdrawal force","[1]; 7 day old rats, 5 μL of 20 μM intrathecally 5 hours after 4 g/kg 15% EtOH i.p., 6 and 7 hour post-EtOH, versus Tat carrier",attenuated mechanical allodynia
same,"mechanical allodynia, threshold withdrawal response","[1]; 21 day old rats, 10 μL of 20 μM intrathecally 4 hours after 4 g/kg 15% EtOH i.p.",prevented a decrease in threshold withdrawal response

# Source: patent US8507440B2, “Protein kinase C peptides for use in withdrawal” (The Board of Trustees of the Leland Stanford Junior …, priority 2002, dated 2013)
